# System: HeLa cells
# Settings: 72 hours of treatment, 50% growth inhibition
substance,measurement,value
5-(Pentafluorophenylsulfonamido)-2-methoxyphenyl phosphate [Example 1],GI50,15 nM

# — patent US6417176B2, “Arylsulfonanilide phosphates” (Tularik, Inc., priority 1998, dated 2002)
